Experimental data as given in patent US8535740B2, “Compositions from Nigella sativa” (priority 2002, dated 2013).
Marks after values point to notes of the source that are not given here.

Tests used:
[1] = test system: prostate specific antigen (PSA) secretion from LNCaP prostate cells; experiment: Prostate specific antigen secretion from LNCaP prostate cells; assay type: cell-based, human; settings: for Effect on PSA Secretion over 24 Hours: LNCaP cells; for PSA secretion: 24 hours
Excerpt: Chemicals—PSA was quantified from the cell culture supernatant fluid using the Quantikine Human KLK3/PSA Immunoassay kit (R&D Systems, Inc., Minnaepolis, Minn.). All other materials used in this example were purchased from Sigma (St. Louis, Mo.) or otherwise noted and were of the highest purity commercially available. The N. sativa samples used in this study were those commercial-scale extracts described in Example 1. Cell culture and treatment—The LNCaP prostate cell line, which produces PSA, was used to study the effects of commercial-scale N. sativa scale extracts of Example 1 and pure TQ on the secretion of PSA. LNCaP cells were purchased from the American Type Culture Collection (ATCC, Manassas, Va.) and sub-cultured according to instructions supplied by ATCC. Prior to experiments, cells were cultured in DMEM containing 10% FBS-HI added 50 units penicillin/ml and 50 μg streptomycin/ml, and maintained in log phase prior to experimental setup. Cells were grown in a 5% CO2 humidified incubator at 37° C. Components of medium included: (1) 10% FBS/DMEM (Fetal Bovine Serum/Dulbecco's Modified Eagle's Medium) containing 4.5 g glucose/L; (2) 50 U/ml penicillin; and (3) 50 μg/ml streptomycin. Growth medium was made by adding 50 ml of heat inactivated FBS and 5 ml of penicillin/streptomycin to 500 ml DMEM. This medium was stored at 4° C. Before use, the medium was warmed to 37° C. in a water bath. LNCaP cells were seeded at an initial density of 6×10^4 cells/cm^2 in 96-well plates. For two days, the cells were allowed grow to reach confluence. On day three post seeding, cells were treated with TQ, NS8, NS9, NS10, Spent#1, and NSSpent#2 at the concentrations listed in FIGS. 5, 6 and 7. Twenty-four hours later, the supernatant media were sampled and assayed for PSA.

[2] = test system: LPS-stimulated macrophages; settings: published results, El-Mahmoudy 2002; cited from earlier work
[3] = test system: adiponectin secretion in 3T3-L1 adipocytes; experiment: Adiponectin secretion in t10-CLA-stimulated 3T3-L1 adipocytes; assay type: cell-based, murine
Description: Treatment—Test materials were added four hours prior to the addition of t10-CLA at a concentration of 50 μM. Following overnight incubation, the supernatant media were sampled for determination of IL-6 and adiponectin. Adiponectin assay—The adiponectin secreted into the medium was quantified using the Mouse Adiponectin Quantikine® Immunoassay kit with no modifications (R&D Systems, Minneapolis, Minn.). […] Statistical Calculations and Interpretation—Test materials and were assayed in duplicate, while solvent controls were replicated eight times. IL-6 and adiponectin secretion were represented relative to the IL-6 and adiponectin secretion of the t10-CLA only controls as the IL-6 and adiponectin index and differences among the means were analyzed by the student's t-test assuming a five percent probability of a type I error (Excel; Microsoft, Redmond, Wash.).

Caco-2 monolayers = experiment: t10-CLA-induced loss of transepithelial electrical resistance in Caco-2 monolayers; assay type: cell-based, human
Excerpt: Caco-2 Cells-The protocol for growing and differentiation the human Caco-2 colon andenocarcinoma cells was a modification of Protocol 3 as described by Yamashita et al. [[…]., and Furuyama, Y. (2002) New and better protocols for a short-term Caco-2 cell culture system, J Pharm Sci 91, 669-679]. Caco-2 Human Colon Adenocarcinoma cells were obtained from ATCC (Rockville, Md.; catalog #HTB-37) and maintained in a growth media: DMEM (Dulbecco's Modified Eagles Medium 1×) containing L-glutamine, glucose; Cellgro catalog #35-010CV with the following additions: (1) Penicillin (5,000 IU/mL)/Streptomycin (5,000 μg/mL) Cellgro catalog #30-001C1, (2) 10% FBS-Fetal Bovine Serum, Characterized; Hyclone catalog #SH30071.3, and (3) 1% NEAA-Non Essential Amino Acids; Cellgro catalog #25-025-CI; cells were cultured at 37 C in a humidified air-5% CO2 atmosphere in T175 flasks. Differentiation of Caco-2 cells to intestinal epithelial cells-BIOCOAT^R HTS Caco-2 Assay System kits (Becton Dickinson, N.J.; catalog #354801) consisting of 24-well fibrillar collagen coated inserts and feeder trays were used in all experiments and plated as follows. Media was removed from the T175 flasks and cells were washed with 10 mLs PBS (phosphate buffered saline 1× without Ca^++, without Mg^++; Cellgro #25-053-CI). PBS was removed and 5 mL of Trypsin/EDTA (1×, 0.25% Trypsin/2.21 mM EDTA in HBSS; Cellgro #25-053-CI) were added to the flask and the flask placed at 37 C until cells were visibly floating, approximately 3-5 minutes. Five mL of growth media were added to the flask to neutralize the trypsin. This solution was then transferred to a sterile 50 mL tube. Eight μL were sampled and placed in a hemocytometer for counting under a microscope. Five-hundred μL of cell solution were placed in the upper chamber of each insert so that the final density per well was at least 6.6×10^5 cells/cm^2. Thirty-five mL of growth media were then added to the feeder tray and plate incubated at 37 C with 5% CO2 and 100% humidity for 20-24 hours. […]

effect on loss of TEER in t10-CLA-stimulated Caco-2 cells (Caco-2 monolayers; concentrations of Table 7): inhibited loss of TEER
SMILES: CC1=CC(=O)C(C(C)C)=CC1=O [Thymoquinone (Sigma), thymoquinone]
Effect on PSA Secretion over 24 Hours [1]: Decreased PSA at 5 and 10 μg/mL, dramatic increase
Effect on PSA Secretion over 24 Hours ([1]; listed as TQ): decreased PSA only at the two lowest doses tested
PSA secretion ([1]; highest dose (100 μg/mL per Table 4)): 207%
PSA secretion ([1]; second highest dose (50 μg/mL per Table 4)): 166%
IC50 for NO inhibition in LPS-stimulated macrophages [2]: 1.4 to 2.8 mg/L
effect on t10-CLA-stimulated decrease of adiponectin secretion ([3]; concentrations of Table 8): attenuated t10-CLA-stimulated decrease of adiponectin secretion
Adiponectin Index ([3]; relative to t10-CLA only control (100), 50 μM t10-CLA, overnight, each material at its tabulated concentration): 128*
Relative Loss of TEER (Caco-2 monolayers; 50 μM t10-CLA stimulus, positive control set to 100, each material at its tabulated concentration (TQ 5.0, NS8 0.11, NS9 0.99, NS10 0.012, NSSpent#2 0.0005 μg TQ equivalents/mL; Spent#1 5 μg/mL)): 44.5*
